Measurements taken from PubChem BioAssay AID553 (University of Pittsburgh Molecular Library Screening Center, 2006).
Activity calls are given as the source filed them. How the calls were made is not given here.

Biological target: Dual specificity protein phosphatase 6 (Rattus norvegicus) (UniProt Q64346)
Test: rat DUSP6 enzyme activity inhibition – biochemical, in vitro, hit/probe assessment, dose response (AID 553)
Details: recombinant MKP-3 phosphatase, fluorescence intensity

Sequence of Dual specificity protein phosphatase 6 (Rattus norvegicus) (Q64346 whole entry, looked up): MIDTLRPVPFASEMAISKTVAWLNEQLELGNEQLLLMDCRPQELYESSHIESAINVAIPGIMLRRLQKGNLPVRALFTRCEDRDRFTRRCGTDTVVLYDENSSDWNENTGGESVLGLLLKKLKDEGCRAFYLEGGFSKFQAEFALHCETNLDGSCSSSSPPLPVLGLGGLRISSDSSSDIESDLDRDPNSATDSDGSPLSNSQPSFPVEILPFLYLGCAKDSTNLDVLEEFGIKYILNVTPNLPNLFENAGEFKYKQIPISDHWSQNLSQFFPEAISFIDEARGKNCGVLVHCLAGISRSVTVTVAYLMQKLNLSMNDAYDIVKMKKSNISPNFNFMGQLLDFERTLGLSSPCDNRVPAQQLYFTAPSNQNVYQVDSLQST

IC50 | SMILES
> 50 µM (inactive) | CCOC(=O)c1ccc(NC2c3ncccc3C(=O)N2Cc2ccc(F)cc2)cc1 (configuration not stated)
> 50 µM (inactive) | O=C1c2cccnc2C(Nc2ccc(S(=O)(=O)N3CCCCCC3)cc2)N1Cc1ccccc1 (configuration not stated)
> 50 µM (inactive) | COC(=O)C1=C(C)NC2=C(C(=O)c3ccccc32)C1c1ccc(-c2ccc(C(=O)O)cc2)o1 (configuration not stated)
> 50 µM (inactive) | Oc1ccc2ccccc2c1C=NC12CN3CCN(CN(C3)C1)C2
> 50 µM (inactive) | CCSCCOC(=O)C1=C(C)NC2=C(C(=O)CCC2)C1c1coc2ccccc2c1=O (configuration not stated)
> 50 µM (inactive) | N#C/C(=C(/O)CSc1nnc(Cc2cccs2)n1C1CCCCC1)c1nc2ccccc2[nH]1
18.3 µM | O=C1C(C2=C(O)c3ccccc3C2=O)=Nc2ccccc21
